Results published in patent US20090088441A1, “Quinoline Compounds” (priority 2007, published 2009).

Key:
[1] = target: T1, GABAB(1A,2) receptor heterodimer (Homo sapiens, UniProt O75899+Q9UBS5); assay: GTPγS35 radioligand filtration-binding assay for determination of PAM potency; format: biochemical; conditions: membranes of CHO-K1 cells expressing GABABR1a/GABABR2; GABA dose-response with 10, 1, 0.1 and 0.01 μM PAM; concentration reducing GABA's EC50 by 50%; read-out: Mean (EC50 derived) PAM EC50
T1 construct: expressed in transfected cells; membrane preparation
Experimental: The effect of GABA in an automated GTPγS^35 radioligand filtration-binding assay in CHO cells expressing the GABAB(1A,2) receptor heterodimer was studied in the presence or absence of the positive allosteric modulator test compounds.
(§1) The potency and efficacy of the compounds acting as agonists at the GABAB receptor was also determined in a automated GTPγS^35 radioligand filtration-binding assay.
(§2) The GABAB receptor is a G-protein coupled receptor. Binding of a ligand activates the receptor leading to recruitment of G-protein and a substitution of the G-protein bound GDP to GTP. The G-protein becomes active. The G-protein is inactivated by hydrolysis of GTP to GDP. G-proteins are membrane bound and therefore present in membrane preparations.
(§3) In the GTPγS^35 assay, GTP is not present but instead GTPγS^35 where one of the phosphate groups are substituted to a sulphur group which cannot be hydrolysed. Upon activation of the receptor, radiolabelled GTPγS^35 replaces the GDP. The complex cannot be inactivated and the radiolabelled complex is accumulating. At the end of the assay, the reaction mixture is filtered through a membrane-binding filter. Excess GTPγS^35 is removed by washing and the membrane bound S^35, which correlates to the degree of receptor activation, is measured with a β-Liquid Scintillation Counter.
GABABR1a and GABABR2 were cloned from human brain cDNA and subcloned into pCI-Neo (Promega) and pALTER-1 (Promega), respectively.
In order to optimise the Kozak consensus sequence of GABABR2, in situ mutagenesis was performed using the Altered Sites Mutagenesis kit according to manufacturer's instruction (Promega) with the following primer, 5′-[…]-3′. The optimised GABABR2 was then restricted from pALTER-1 with Xho I+Kpn I and subcloned into the mammalian expression vector pcDNA3.1 (−)/Zeo (Invitrogen) to produce the final construct, pcDNA3.1 (−)/Zeo-GABABR2.
For generation of stable cell lines, CHO-K1 cells were grown in Nut mix F-12 (Ham) media supplemented with 10% FBS, 100 U/ml Penicillin and 100 μg/ml Streptomycin at 37° C. in a humidified CO2-incubator. The cells were detached with 1 mM EDTA in PBS and 1 million cells were seeded in 100 mm petri dishes. After 24 hours the culture media was replaced with OptiMEM and incubated for 1 hour in a CO2-incubator.
For generation of a cell line expressing the GABABR1a/GABABR2 heterodimer, GABABR1a plasmid DNA ([…]) GABABR2 plasmid DNA (4 μg) and lipofectamine (24 μl) were mixed in 5 ml OptiMEM and incubated for 45 minutes at room temperature. […] After expansion, the GABAB receptor functional response was tested by measuring the GABAB receptor dependent release of intracellular calcium in a fluorescence imaging plate reader (FLIPR). […]

[2] = target: T2, GABABR1a/GABABR2 heterodimer (Homo sapiens, UniProt O75899+Q9UBS5); assay: GTPγS35 radioligand filtration-binding assay for determination of agonist potency; format: biochemical; conditions: membranes of CHO K1 Flp-In cells expressing GABABR1a/GABABR2; 30° C., 1 hour
T2 construct: expressed in transfected cells; membrane preparation
Experimental: as §1, §2, §3
The human GABABR1a was subcloned into pIRESneo3 (Clontech) using GABABR1a construct as a template (refseqN NM001470). GABABR2 was subcloned into pcDNA5/FRT (Invitrogen) using GABABR2 construct as a template (refseqN NM005458). The Kozak sequence GCCACC was introduced before the start codon in both constructs.
For generation of stable cell lines, CHO K1 Flp-In cells (Invitrogen) were grown in DMEM/F12 1:1 media supplemented with 10% FBS at 37° C. in a humidified CO2-incubator. The cells were detached with Accutase and 1.5 million cells were seeded into T75 flasks. After 24 h, transfection of the cells were performed with the GABABR2 construct. For generation of cell lines expressing GABABR2, GABABR2 plasmid (1 μg) and pOG44 from Invitrogen (9 μg) were mixed with 30 μl Lipofectamine 2000 in 600 μl OptiMEM for 20 minutes. The cells were exposed to transfection medium for 5 hours and was then replaced with culture medium. After 2 days 0.5 mg/ml Hygromycin were added to culture medium. The cells were cultured for an additional 10 days to establish a stable cell mix expressing GABABR2. For generation of a cell line expressing the GABABR1a/GABABR2 hetrodimer, GABABR1a plasmid DNA (8 μg) and Lipofectamine (30 μl) were mixed in 600 μl OptiMEM and incubated for 20 minutes before added to CHO-Flp-In cells expressing GABABR2. After 2 days additional selection agent was added (0.8 mg/ml Geneticin). The cells were cultured for another 10 days to generate a stable mixed population expressing the GABABR1a/GABABR2 heterodimer. The cell line was analyzed by GTPγS^35 assay with GABA as agonist.
GTPγS^35 radioligand filtration-binding assays were performed using an automated workstation at 30° C. for 1 hour in assay buffer (50 mM HEPES, 40 mM NaCl, 1 mM MgCl2×6H2O, 30 μg/mL Saponin, pH 7.4 at RT) containing 0.025 μg/μL of membrane protein (prepared from the cell line described above), 10 μM GDP and 0.55 nCi/μL GTPγS^35 in a final volume of 60 μL. The reaction was started by the addition of compounds (GABA was always included as a positive control), start concentration 100 μM dilution factor 3. The reaction was terminated and membranes collected by addition of ice-cold wash buffer (50 mM Tris-HCl, 5 mM MgCl2×6H2O, 50 mM NaCl, pH 7.4 at 4° C.) followed by rapid filtration under vacuum through a MultiScreen HTS 384 FB filter plate. Repeated washing of the filters with ice-cold wash buffer washed the unbound radioligand away. The filter plates were dried for 1½-2 hours at 50° C., then 8 μL scintillation liquid was added per well followed by incubation at RT for at least 20 minutes before bound radioactivity was determined using a β-Liquid Scintillation Counter (1450 Microbeta Trilux, Wallac, Finland)
100% activation (max) is calculated as the mean value for wells containing 1 mM GABA. […]

T1 sequence (Q9UBS5 15-961 limits assumed): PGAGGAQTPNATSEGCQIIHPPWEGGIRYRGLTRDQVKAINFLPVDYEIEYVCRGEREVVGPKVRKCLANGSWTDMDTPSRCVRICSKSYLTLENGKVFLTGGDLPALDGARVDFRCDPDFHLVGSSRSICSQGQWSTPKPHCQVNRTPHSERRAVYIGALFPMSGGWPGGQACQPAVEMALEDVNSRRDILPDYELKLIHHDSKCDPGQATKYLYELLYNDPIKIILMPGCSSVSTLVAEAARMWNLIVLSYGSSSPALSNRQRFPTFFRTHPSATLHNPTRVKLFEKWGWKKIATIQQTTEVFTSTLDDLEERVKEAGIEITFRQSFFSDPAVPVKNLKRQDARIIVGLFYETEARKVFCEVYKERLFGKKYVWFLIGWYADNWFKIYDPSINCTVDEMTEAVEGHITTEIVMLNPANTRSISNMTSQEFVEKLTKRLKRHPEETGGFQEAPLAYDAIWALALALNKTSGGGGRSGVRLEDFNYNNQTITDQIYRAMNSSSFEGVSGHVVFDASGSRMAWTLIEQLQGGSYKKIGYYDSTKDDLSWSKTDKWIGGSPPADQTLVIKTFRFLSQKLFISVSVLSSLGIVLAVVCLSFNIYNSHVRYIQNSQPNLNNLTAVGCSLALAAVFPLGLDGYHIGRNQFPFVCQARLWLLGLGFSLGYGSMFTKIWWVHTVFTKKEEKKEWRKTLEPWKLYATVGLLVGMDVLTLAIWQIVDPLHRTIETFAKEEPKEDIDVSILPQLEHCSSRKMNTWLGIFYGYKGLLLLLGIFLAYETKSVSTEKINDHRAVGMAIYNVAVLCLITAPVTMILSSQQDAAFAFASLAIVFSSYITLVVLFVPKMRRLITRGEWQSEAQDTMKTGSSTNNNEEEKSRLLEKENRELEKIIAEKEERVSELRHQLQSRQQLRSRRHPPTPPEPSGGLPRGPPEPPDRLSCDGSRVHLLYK
T1 sequence (O75899 42-941): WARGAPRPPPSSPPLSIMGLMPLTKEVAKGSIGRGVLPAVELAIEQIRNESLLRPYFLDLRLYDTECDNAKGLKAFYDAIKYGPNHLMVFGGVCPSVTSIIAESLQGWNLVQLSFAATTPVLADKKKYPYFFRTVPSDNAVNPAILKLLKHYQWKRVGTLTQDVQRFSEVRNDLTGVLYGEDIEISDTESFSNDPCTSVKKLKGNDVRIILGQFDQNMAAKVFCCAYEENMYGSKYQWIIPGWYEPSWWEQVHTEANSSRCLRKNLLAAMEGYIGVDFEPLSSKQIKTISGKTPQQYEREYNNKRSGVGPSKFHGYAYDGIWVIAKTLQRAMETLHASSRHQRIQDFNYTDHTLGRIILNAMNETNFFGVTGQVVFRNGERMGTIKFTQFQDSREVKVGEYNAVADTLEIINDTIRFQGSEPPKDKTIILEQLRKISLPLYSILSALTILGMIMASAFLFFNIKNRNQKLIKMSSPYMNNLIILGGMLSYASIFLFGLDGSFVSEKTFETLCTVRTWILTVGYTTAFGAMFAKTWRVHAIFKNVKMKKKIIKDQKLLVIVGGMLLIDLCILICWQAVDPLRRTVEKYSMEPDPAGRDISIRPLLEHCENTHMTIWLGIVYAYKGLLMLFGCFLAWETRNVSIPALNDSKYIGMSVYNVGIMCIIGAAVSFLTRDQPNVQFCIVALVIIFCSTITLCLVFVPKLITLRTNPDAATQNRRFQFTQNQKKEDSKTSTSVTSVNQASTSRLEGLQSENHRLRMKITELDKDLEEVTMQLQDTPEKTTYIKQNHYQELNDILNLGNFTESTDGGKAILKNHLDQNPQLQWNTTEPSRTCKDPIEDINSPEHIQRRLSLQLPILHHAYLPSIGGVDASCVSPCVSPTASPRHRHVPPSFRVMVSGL
T2 sequence (Q9UBS5 15-961 limits assumed): as the sequence (Q9UBS5 15-961 limits assumed) above
T2 sequence (O75899 42-941): as the sequence (O75899 42-941) above

Row | Compound | EC50 [1] [nM] | EC50 [2] [nM]
1 | Cc1nc2ccc(Br)cc2c(-c2ccc(F)cc2)c1C(C)Oc1ccc(Cl)cc1 (stereo not drawn) [Example 2, 6-bromo-3-[1-(4-chlorophenoxy)ethyl]-4-(4-fluorophenyl)-2-methylquinoline] | 9200 | 6500
2 | Cc1nc2ccc(N3CCCCC3)cc2c(-c2ccc(F)cc2)c1C(C)Oc1ccc(Cl)cc1 (stereo not drawn) [Example 4, 3-[1-(4-chlorophenoxy)ethyl]-4-(4-fluorophenyl)-2-methyl-6-piperidin-1-ylquinoline] | 24000 | 1000
3 | Cc1nc2ccc(N3CCCCC3)cc2c(-c2ccc(F)cc2)c1C(C)Oc1ccccn1 (stereo not drawn) [Example 5, 4-(4-fluorophenyl)-2-methyl-6-piperidin-1-yl-3-[1-(pyridin-2-yloxy)ethyl]quinoline] |  | 1800
4 | Cc1nc2ccc(N3CCCCC3)cc2c(-c2ccc(F)cc2)c1C(C)Oc1ccc(C#N)cc1 (stereo not drawn) [Example 6, 4-{1-[4-(4-fluorophenyl)-2-methyl-6-piperidin-1-ylquinolin-3-yl]ethoxy}benzonitrile] |  | 2900
5 | Cc1nc2ccc(N3CCCCC3)cc2c(-c2ccc(F)cc2)c1C(C)Oc1cccc(C#N)c1 (stereo not drawn) [Example 7, 3-{1-[4-(4-fluorophenyl)-2-methyl-6-piperidin-1-ylquinolin-3-yl]ethoxy}benzonitrile] |  | 1500
6 | Cc1nc2ccc(N3CCCCC3)cc2c(-c2ccc(F)cc2)c1C(C)Oc1ccc(S(C)(=O)=O)cc1 (stereo not drawn) [Example 8, 4-(4-fluorophenyl)-2-methyl-3-{1-[4-(methylsulfonyl)phenoxy]ethyl}-6-piperidin-1-ylquinoline] |  | 1700
7 | Cc1nc2ccc(N3CCCCC3)cc2c(-c2ccc(F)cc2)c1C(C)Oc1cccnc1 (stereo not drawn) [Example 9, 4-(4-fluorophenyl)-2-methyl-6-piperidin-1-yl-3-[1-(pyridin-3-yloxy)ethyl]quinoline] |  | 3000
8 | Cc1nc2ccc(N3CCCCC3)cc2c(-c2ccc(F)cc2)c1C(C)Oc1ccccc1Cl (stereo not drawn) [Example 10, 3-[1-(2-chlorophenoxy)ethyl]-4-(4-fluorophenyl)-2-methyl-6-piperidin-1-ylquinoline] |  | 1300
9 | COc1ccc(OC(C)c2c(C)nc3ccc(N4CCCCC4)cc3c2-c2ccc(F)cc2)cc1 (stereo not drawn) [Example 11, 4-(4-fluorophenyl)-3-[1-(4-methoxyphenoxy)ethyl]-2-methyl-6-piperidin-1-ylquinoline] |  | 1600
10 | Cc1nc2ccc(N3CCCCC3)cc2c(-c2ccc(F)cc2)c1C(C)Oc1cccc(N(C)C)c1 (stereo not drawn) [Example 12, (3-{1-[4-(4-fluorophenyl)-2-methyl-6-piperidin-1-ylquinolin-3-yl]ethoxy}phenyl)dimethylamine] |  | 2200
11 | Cc1nc2ccc(N3CCCCC3)cc2c(-c2ccc(F)cc2)c1C(C)Oc1ccccc1C(C)C (stereo not drawn) [Example 13, 4-(4-fluorophenyl)-3-[1-(2-isopropylphenoxy)ethyl]-2-methyl-6-piperidin-1-ylquinoline] |  | 300
12 | Cc1nc2ccc(N3CCCCC3)cc2c(-c2ccc(F)cc2)c1C(C)Oc1cccc(C(N)=O)c1 (stereo not drawn) [Example 14, 3-{1-[4-(4-fluorophenyl)-2-methyl-6-piperidin-1-ylquinolin-3-yl]ethoxy}benzamide] |  | 4500
13 | Cc1nc2ccc(N3CCCCC3)cc2c(-c2ccc(F)cc2)c1C(C)Oc1ccccc1C#N (stereo not drawn) [Example 15, 2-{1-[4-(4-fluorophenyl)-2-methyl-6-piperidin-1-ylquinolin-3-yl]ethoxy}benzonitrile] |  | 900
14 | Cc1nc2ccc(N3CCCCC3)cc2c(-c2ccc(F)cc2)c1C(C)n1ccccc1=O (stereo not drawn) [Example 16, 1-{1-[4-(4-fluorophenyl)-2-methyl-6-piperidin-1-ylquinolin-3-yl]ethyl}pyridin-2(1H)-one] |  | 24000
15 | Cc1nc2ccc(N3CCN(C)CC3)cc2c(-c2ccc(F)cc2)c1C(C)Oc1ccc(Cl)cc1 (stereo not drawn) [Example 17, 3-[1-(4-chlorophenoxy)ethyl]-4-(4-fluorophenyl)-2-methyl-6-(4-methylpiperazin-1-yl)quinoline] |  | 7600
16 | Cc1nc2ccc(N3CCN(C)CC3)cc2c(-c2ccc(F)cc2)c1C(C)Oc1ccccc1C(C)C (stereo not drawn) [Example 18, 4-(4-fluorophenyl)-3-[1-(2-isopropylphenoxy)ethyl]-2-methyl-6-(4-methylpiperazin-1-yl)quinoline] |  | 4300
17 | Cc1nc2ccc(N3CCCCC3)cc2c(-c2ccc(F)cc2)c1C(C)Oc1ccc(O)cc1 (stereo not drawn) [Example 19, 4-{1-[4-(4-fluorophenyl)-2-methyl-6-piperidin-1-ylquinolin-3-yl]ethoxy}phenol] |  | 1200
18 | Cc1nc2ccc(Br)cc2c(-c2ccc(F)cc2)c1C(=O)OC(C)(C)C [Example 20, tert-butyl 6-bromo-4-(4-fluorophenyl)-2-methylquinoline-3-carboxylate] | 3100 | 
19 | Cc1nc2ccc(N3CCCCC3)cc2c(-c2ccc(F)cc2)c1COc1ccc(Cl)cc1 [Example 25, 3-[(4-chlorophenoxy)methyl]-4-(4-fluorophenyl)-2-methyl-6-piperidin-1-ylquinoline] |  | 1100
